Source: ChEMBL document CHEMBL1126725, “Enantioselectivity of cocaine recognition sites: binding of (1S)- and (1R)-2 beta-carbomethoxy-3 beta-(4-iodophenyl)tropane (beta-CIT) to monoamine transporters” (J Med Chem, 1993)

Experiments:
[1] = Tested for its ability to displace [125I]- (1R)-beta-CIT with rat cortical membranes
[2] = (§1) Tested for its ability to displace [125I]- (1R)-beta-CIT with rat striatal membranes; set-up: species or system Striatum, Membrane
[3] = biological target: Sodium-dependent serotonin transporter (Homo sapiens, UniProt P31645); assay: Compounds binding ability to serotonin transporter was evaluated by displacing [3H]paroxetine in baboon brain; set-up: species or system Papio hamadryas
Sodium-dependent serotonin transporter, sequence (P31645 whole entry): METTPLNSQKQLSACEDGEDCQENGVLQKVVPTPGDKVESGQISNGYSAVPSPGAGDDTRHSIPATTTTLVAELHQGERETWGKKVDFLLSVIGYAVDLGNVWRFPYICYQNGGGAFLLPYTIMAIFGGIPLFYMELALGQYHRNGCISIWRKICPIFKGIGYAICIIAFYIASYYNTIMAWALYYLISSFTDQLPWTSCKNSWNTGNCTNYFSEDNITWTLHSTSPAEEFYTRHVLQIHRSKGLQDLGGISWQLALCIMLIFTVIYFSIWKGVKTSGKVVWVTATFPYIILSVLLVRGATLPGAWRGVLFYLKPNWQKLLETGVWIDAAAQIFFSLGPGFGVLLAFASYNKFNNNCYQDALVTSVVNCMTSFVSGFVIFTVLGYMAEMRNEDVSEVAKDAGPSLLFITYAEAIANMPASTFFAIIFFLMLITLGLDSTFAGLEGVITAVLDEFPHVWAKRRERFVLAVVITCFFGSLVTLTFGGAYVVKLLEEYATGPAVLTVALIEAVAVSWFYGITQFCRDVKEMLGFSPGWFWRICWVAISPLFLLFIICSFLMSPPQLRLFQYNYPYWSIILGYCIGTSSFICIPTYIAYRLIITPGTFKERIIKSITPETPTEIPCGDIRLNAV

Rattus norvegicus = species on record: Rattus norvegicus; assay: as §1; set-up: species or system Membrane; settings: Striatum

Row | SMILES | IC50 [1] [nM] | IC50 [2] [nM] | IC50 [3] [nM] | IC50 (Rattus norvegicus) [nM]
1 | COC(=O)[C@@H]1C2CC[C@H](C[C@@H]1c1ccc(I)cc1)N2C | 450 | 5700 |  | 
2 | COC(=O)C1C2CC[C@H](C[C@@H]1c1ccc(I)cc1)N2C (stereo not given in full) | 0.55 |  | 3.8 | 0.42
